Key:
[1] = Acute toxicity in the mouse; details: in vivo
[2] = Cardiovascular parameters: intact dogs; assay type: in vivo, dog; details: for Average pressure / Diastolic pressure / Systolic pressure: in % (unit assumed)
Description: Unsorted dogs of either sex weighing 8 to 17 kg and anaesthetised by chloralose in solution in polyethylene glycol 300 (0.12 g/kg) were respirated artificially using a Bird pump (Mark 7). The carotid arterial blood pressure was measured with the aid of a Statham P 23 dB device. The left ventricular pressure is measured with the same device connected by a supple catheter introduced by the femoral artery and pushed into the left ventricle. The cardiac rhythm is measured from the signals of the carotid pressure. The myocardial contractile force is measured using a strain gauge (Apelab) attached to the right ventricle. All the parameters are recorded on a Beckman polygraph. Two series of dogs are used to test the cardiovascular activity: 5 dogs atropinised (1 mg/kg intravenously) and bivagotomised; and a second series of 4 intact dogs. The product of Example 1 was injected through the saphena vein and the duration of the injection was 2 minutes.
The following Table IX gives the variations of the parameters recorded and their significance according to the t test (* p<0.05; ** p<0.01; *** p<0.001).

[3] = 16 mg/kg intravenously, 4 dogs, ** p<0.01

Structure (SMILES): Cc1cccc(Nc2ncccc2C(=O)OCCN2CCOCC2)c1C [Example 1, β-Morpholino ethyl nixylate]
- LD50 at 168 h ([1]; ip): 700 mg/kg
- LD50 at 168 h ([1]; iv): 110 mg/kg
- LD50 at 168 h ([1]; po): 1600 mg/kg
- Alteration in cardiac rhythm ([2]; 1 mg/kg intravenously, 4 dogs): -1 beats per minute
- Duration of the hypotension ([2]; 1 mg/kg intravenously, 4 dogs): 30
- Average pressure ([2]; 1 mg/kg intravenously, 4 dogs): -9±5.2
- Diastolic pressure ([2]; 1 mg/kg intravenously, 4 dogs): -10±5.7
- Systolic pressure ([2]; 1 mg/kg intravenously, 4 dogs): -8±4.6
- Alteration in cardiac rhythm ([2]; 4 mg/kg intravenously, 4 dogs): -15 beats per minute
- Duration of the hypotension ([2]; 4 mg/kg intravenously, 4 dogs): 60
- Diastolic pressure ([2]; 4 mg/kg intravenously, 4 dogs, * p<0.05): -18±5.5
- Average pressure ([2]; 4 mg/kg intravenously, 4 dogs): -16±5.4
- Systolic pressure ([2]; 4 mg/kg intravenously, 4 dogs): -15±5.3
- Alteration in cardiac rhythm ([2]; 8 mg/kg intravenously, 2 dogs): -22 beats per minute
- Average pressure ([2]; 8 mg/kg intravenously, 2 dogs): -38
- Diastolic pressure ([2]; 8 mg/kg intravenously, 2 dogs): -41
- Systolic pressure ([2]; 8 mg/kg intravenously, 2 dogs): -34
- Alteration in cardiac rhythm ([2]; 16 mg/kg intravenously, 4 dogs): -37 beats per minute
- Duration of the hypotension ([2]; 16 mg/kg intravenously, 4 dogs): > 50
- Average pressure [2, 3]: -54±4.3
- Systolic pressure [2, 3]: -45±7
- Diastolic pressure ([2]; 16 mg/kg intravenously, 4 dogs, *** p<0.001): -57±3.8
- biphasic action on the recorded parameters ([2]; different dosages): No biphasic action on the recorded parameters was observed

From US3959272A, “Aminoalkyl esters of 2-anilino-nicotinic acids” (Societe Anonyme dite: Hexachime, priority 1972, dated 1976)
